Reference: patent publication US20250090510A1, “eIF4G1-eIF1 INHIBITORS AND USE THEREOF” (YEDA RESEARCH AND DEVELOPMENT CO. LTD., priority 2022, published 2025)

Tests used:
HEK293T cells = assay: Cell cycle analysis, propidium iodide flow cytometry; type: cell-based, human; conditions: i14G1-10 20 uM, 16 hours; for cells in S phase / sub-G1 dead cells: i14G1-12 1 uM
Description: FIGS. 3A-F: i14G1-10 and i14G1-12 inhibit mRNA translation and sensitize cell survival of eIF4G1 and eIF1 depleted cells. (3A) In-vitro translation using rabbit reticulocyte lysate which was pre-incubated with different concentrations of i14G1-10 or i14G1-12 for 10 minutes followed by the addition of capped firefly luciferase mRNA. After 90 minutes at 30° C., the luminescence signal was measured and the IC50 was calculated. The data represents mean±SEM of 6 independent repeats. (3B) HEK293T cells were treated with DMSO (vehicle control), and sub-cytotoxic concentrations of i14G1-10 (20 μM) and i14G1-12 (10 μM) for 3h. Cell lysates were then subjected to sucrose gradient sedimentation to obtain polysome profiles. (3C) HEK293T cells were treated with the indicated concentrations of i14G1-10 and i14G-12 for 3 h, followed by the addition of puromycin (10 μg/ml) for 5 minutes, after which cells were lysed and analyzed by western blot using an anti-puromycin antibody and anti-GAPDH antibody that serves as a loading control. The graph represents the mean±SEM chemiluminescence signal intensity of puromycin labeling normalized to GAPDH of 3 independent experiments. The calculated IC-50 is shown. (3D) HEK293T cells were transfected with either control or eIF4G1 siRNA in the absence or presence of eIF4G1 expression plasmid. As the eIF4G1 siRNA pool is directed against the 3′UTR, which is absent from the eIF4G1 expression plasmid, the exogenous eIF4G1 is resistant to the siRNA. 48 h after transfection, cells were treated with the indicated concentrations of i14G1-10 and i14G-12 for 3 h, followed by a 5 minutes puromycin pulse as described in 3C. The graph represents the mean±SEM chemiluminescence signal intensity of puromycin labeling normalized to GAPDH of 3 independent experiments. The calculated IC-50 is shown. (3E) The graphs represent cell viability of the indicated cell lines in the presence of increasing concentrations of i14G1-10 and i14G1, analyzed by Luminescent Cell Viability Assay. (3F) Pie charts showing the cell cycle distribution of HEK293T cells treated with DMSO, i14G1-10 and i14G1-12.
Cell cycle and cell viability analyses. HEK293T were treated with DMSO, i14G1-10 (20 uM) and i14G1-12 (1 uM) for 16 hours and then were trypsinized, washed twice with ice cold PBS and fixed overnight in 70% ethanol. Then cells were washed twice with ice cold PBS and resuspended in staining buffer (0.1% triton X-100, 2 mg RNase A and […]), and incubated at 37° C. for 15 minutes. Cells were monitored by BC LSRII flow cytometer and data was analyzed using Modfit Lt Software.
This was true in breast cancer (MCF7), lung cancer (A549), colorectal cancer (HCT116), ovarian cancer (OVCAR8) and in a bone cancer sarcoma cell line (U20S). To examine whether the growth defect is associated with cell cycle progression, control and drug treated cells were subjected to DNA staining by propidium iodide and then a flow cytometry analysis to determine their distribution in the sub-G1 (dead cells), G1, S and G2/M phases of the cell cycle.

[1] = tested on: P. falciparum translation; assay: Puromycin incorporation western blot in P. falciparum blood cultures; type: cell-based, Plasmodium falciparum; conditions: i14G1-10 20 uM, i14G1-12 10 uM; 1 hour, puromycin 5 minutes
Description: FIGS. 8A-B: (8A) Bar graph of percent parasitemia in blood samples treated with i14G1-10 (20 μM) and i14G1-12 (10 μM) for 1 hour. DMSO treatment was used as a negative control. *=pVal; <0.05, ***=pVal<0.001 (8B) Photograph of a western blot and corresponding gel total protein staining of P. falciparum blood cultures treated with the inhibitors with or without the addition of puromycin. DMSO treatment and untreated cultures were used as a negative control.
Next, the method of action that caused the growth/survival inhibition was tested. […] Puromycin labels newly synthesized proteins and cell lysates were analysed by western blot with anti-puromycin antibody (FIG. 8B).

[2] = Analysis of uptake (intracellular levels) by LC-MS; type: in vitro ADME; conditions: for concentration by LC-MS, Media: Media (amount applied)
Description: To determine the intracellular levels of i14G1-10 and i14G1-12, cells treated with these drugs for 3 h were extensively washed and then analyzed by LC-MS. Both compounds were detected within the cells, but the amount of i14G1-12 was substantially lower than the amount that was applied (Table 4).

[3] = cells treated 3 h, extensively washed

Structure (SMILES) | cells in G2/M phase of the cell cycle (HEK293T cells) | cells in S phase (HEK293T cells) | sub-G1 dead cells (HEK293T cells) | protein synthesis (puromycin incorporation) [1] | concentration by LC-MS, Media [2] | concentration by LC-MS, i14G1-10 treated cells [2, 3] | concentration by LC-MS, i14G1-12 treated cells [2, 3]
O=C(/C=C/Sc1ccc(C(F)(F)F)cn1)c1ccccc1 [i14G1-10] | dramatic accumulation of cells in the G2/M phase | reduction in S | elevation in sub-G1 dead cells | inhibited protein synthesis | 6200 ng/mL | 1130 ± 40 ng/mL | Not detected
Cn1ccnc1S/C(=C/C=C(C#N)C#N)c1ccc(Cl)cc1 [i14G1-12] |  | reduction in S | elevation in sub-G1 dead cells | inhibited protein synthesis | 3300 ng/mL | Not detected | 
